Reference: patent US8336545B2, “Methods and systems for operating an aerosol generator” (priority 2001, dated 2012)
Read-outs that look alike come from different tables or passages of the source.

Tests used:
[1] = system: Gram-negative, pneumonia-causing bacteria; conditions: locally in TA; cited from earlier work
[2] = assay type: in vivo; conditions: all Arm 1 and 2 patients
Method: A study, using a double-blind, placebo-controlled protocol, was conducted of nebulized amikacin delivered using one or more embodiments of the pulmonary drug delivery system of the present invention in ventilated patients with Gram-negative pneumonia. The aerosol therapy was adjunctive to IV therapy per American Thoracic Society (ATS) guidelines. Such guidelines are fully set forth, for example, in the American Journal of Respiratory Critical Care Medicine, Vol 171, pages 388-416 (2005), incorporated by reference herein in its entirety. Twelve patients were randomized equally to three study arms: Arm 1 received an aerosolized dose of 400 mg amikacin once daily, and thereafter alternating every twelve hours with placebo. Arm 2 patients received 400 mg of amikacin twice daily (i.e. […]). Patients in Arm 3 were randomized to two aerosolized treatments of placebo every twelve hours. The placebo was Normal saline. […] Amikacin levels were monitored by daily blood sampling. […] The apparent volume of epithelial lining fluid (ELF) recovered by BAL was determined by using urea as an endogenous marker of dilution. The same day, the amikacin concentration was determined in tracheal aspirates (TA) collected 15 min and 1, 2, 4, 8 and 12 hours post aerosol delivery.

[3] = system: Gram-negative pneumonia; assay: Example C: clinical outcome, IV antibiotic days and tolerability; assay type: in vivo, patients; conditions: placebo group versus aerosol group, p=0.02
Method: (§1) A study, using a double-blind, placebo-controlled protocol, was conducted of nebulized amikacin delivered using one or more embodiments of the pulmonary drug delivery system of the present invention in ventilated patients with Gram-negative pneumonia. The aerosol therapy was adjunctive to IV therapy per American Thoracic Society (ATS) guidelines. In this study, sixty seven patients received at least one dose of aerosol medication. Patients were randomized equally to three study arms. Arm 1 patients received an aerosolized dose of 400 mg amikacin once daily, alternating with a placebo on a twelve hour schedule. Arm 2 patients received 400 mg of amikacin twice daily (i.e. […]). Patients in Arm 3 were randomized to two aerosol treatments of placebo every twelve hours. The placebo was Normal saline. The amikacin concentration was determined in TA collected 15 min and 1, 2, 4, 8 and 12 hours after delivery of the morning dose on Days 1 and 3. A PDDS/ventilator circuit configuration was as described for Example B. The microprocessor was set to deliver aerosol during the first approximately 75% of the inspiration, to achieve aerosol drug deposition of 50-75% of the dose, within approximately 45 to 60 minutes. Amikacin levels were monitored by daily blood sampling.

[4] = design: species or system patients; conditions: in vivo
Method: In this Example, the dose-response to aerosolized amikacin, administered in accordance with one or more embodiments of devices, apparatus and/or methods of the present invention was evaluated, as was the ability to deliver a predefined target multiple of an MIC for Gram-negative bacteria causing pneumonia, including, Pseudomonas species, in the tracheal aspirates (TA). […] Thus the desired multiple is 6,400 μg/mL.
as §1

[5] = system: Gram-negative pneumonia; assay type: in vivo, patients
Method: A study, using a double-blind, placebo-controlled protocol, was conducted of nebulized amikacin delivered using one or more embodiments of the pulmonary drug delivery system of the present invention in ventilated patients with Gram-negative pneumonia. The aerosol therapy was adjunctive to IV therapy per American Thoracic Society (ATS) guidelines. Patients were randomized equally to three study arms. Arm 1 patients received an aerosolized dose of 400 mg amikacin once daily, alternating with a placebo on a twelve hour schedule. Arm 2 patients received 400 mg of amikacin twice daily (i.e. […]). Patients in Arm 3 were randomized to two aerosol treatments of placebo every twelve hours. The placebo was Normal saline. Peak amikacin concentration was determined in serum collected 0.25, 1, 2, and 4 hours after delivery of the dose on days 1 and 3, and the data was used to calculate Cmax. Trough concentrations were determined daily 30 minutes prior to the first daily dose. A PDDS/ventilator circuit configuration was as described for Example B. The microprocessor was set to deliver aerosol during the first approximately 75% of the inspiration, to achieve aerosol drug deposition of 50-75% of the dose within approximately 45 to 60 minutes. Amikacin levels were monitored by daily blood sampling.
The embodiments of devices, apparatus and/or methods of the present invention thus reduce the number of antibiotics required systemically to achieve a therapeutic result.

[6] = 400 mg daily (N = 20), percent of patients
[7] = 400 mg twice daily (N = 16), count
[8] = 400 mg twice daily (N = 16), percent of patients

SMILES: NCC[C@H](O)C(=O)N[C@@H]1C[C@H](N)[C@@H](O[C@H]2O[C@H](CN)[C@@H](O)[C@H](O)[C@H]2O)[C@H](O)[C@H]1O[C@H]1O[C@H](CO)[C@@H](O)[C@H](N)[C@H]1O [amikacin]
- reference MIC value [1]: 256 µg/mL
- amikacin levels versus highest MIC values [2]: exceeded the highest MIC values for pathogens causing Gram-negative pneumonia
- IV antibiotic days at the end of aerosol administration [3]: placebo group had statistically more IV antibiotic days then the aerosol group
- TA levels of amikacin ([4]; human): exceeded 1,100 μg/mL
- TA level as multiple of the reference MIC target value [4]: at least four
- amikacin level versus highest MIC values [4]: exceeded the highest MIC values for most Gram negative pathogens causing pneumonia
- mean IV antibiotics at end of treatment, aerosolized placebo relative to twice daily aerosolized amikacin ([5]; 400 mg BID, end of treatment (mean of seven days)): about two
- Total Number of Daily Antimicrobials ([5]; 400 mg daily (N = 20)): 118
- Number of Patients With at Least One Daily Antimicrobial ([5]; 400 mg daily (N = 20), count): 19
- patients with ANTIBACTERIALS FOR SYSTEMIC USE ([5]; 400 mg daily (N = 20), count): 18
- Number of Patients With at Least One Daily Antimicrobial [5, 6]: (95.0%)
- patients with ANTIBACTERIALS FOR SYSTEMIC USE [5, 6]: (90.0%)
- Total Number of Daily Antimicrobials ([5]; 400 mg twice daily (N = 16)): 75
- Number of Patients With at Least One Daily Antimicrobial [5, 7]: 16
- patients with ANTIBACTERIALS FOR SYSTEMIC USE [5, 7]: 16
- Number of Patients With at Least One Daily Antimicrobial [5, 8]: (100.0%)
- patients with ANTIBACTERIALS FOR SYSTEMIC USE [5, 8]: (100.0%)
